Measured values taken from US20250059217A1, “HETEROCYCLIC COMPOUNDS AND METHODS OF PREPARATION THEREOF” (priority 2021, published 2025).
Structures can show the parent of a compound that is named as a salt. Where two headings read alike, the source gives them in different places.

What was measured:
5-HT2B receptor = biological target: T1, 5-HT2B receptor (Homo sapiens, UniProt P41595); experiment: Serotonin receptor 5-HT2 functional assay (Gq dissociation BRET or Gq-dependent calcium flux), 5-HT2B; format: cell-based; details: Table 4, at least three replicate trials; for 5-HT2B BRET Eff %: efficacy relative to 4-hydroxytryptamine; for 5-HT2B BRET EC50 (nM) / EC50: relative to 4-hydroxytryptamine
T1 construct: expressed in transfected cells; host or cells: HEK293T

5-HT2C receptor = biological target: T2, 5-HT2C receptor (Homo sapiens, UniProt P28335); experiment: cell-based
T2 construct: expressed in transfected cells; host or cells: HEK293T
T2 sequence (P28335 33-458): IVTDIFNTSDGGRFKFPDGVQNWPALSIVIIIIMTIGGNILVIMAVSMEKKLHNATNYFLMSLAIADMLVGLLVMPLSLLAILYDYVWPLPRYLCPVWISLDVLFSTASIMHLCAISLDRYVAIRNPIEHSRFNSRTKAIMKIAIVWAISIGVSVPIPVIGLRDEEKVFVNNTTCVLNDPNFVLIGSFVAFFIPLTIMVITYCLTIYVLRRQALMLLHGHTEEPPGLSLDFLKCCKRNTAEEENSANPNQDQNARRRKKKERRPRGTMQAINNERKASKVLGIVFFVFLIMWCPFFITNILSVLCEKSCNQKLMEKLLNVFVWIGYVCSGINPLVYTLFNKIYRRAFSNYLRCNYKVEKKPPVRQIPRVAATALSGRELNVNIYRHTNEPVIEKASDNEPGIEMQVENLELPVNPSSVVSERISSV

5-HT2A receptor = biological target: T3, 5-HT2A receptor (Homo sapiens, UniProt P28223); experiment: Serotonin receptor 5-HT2 functional assay (Gq dissociation BRET or Gq-dependent calcium flux), 5-HT2A; format: cell-based; details: for 5-HT2A BRET Eff %: efficacy relative to 4-hydroxytryptamine
T3 construct: expressed in transfected cells; host or cells: HEK293T

[1] = Table 4, at least three replicate trials
[2] = Table 4, relative to 4-hydroxytryptamine, at least three replicate trials, read-out: 5-HT2A BRET EC50
[3] = Table 4, efficacy relative to 4-hydroxytryptamine, at least three replicate trials
[4] = Table 4, relative to 4-hydroxytryptamine, at least three replicate trials, read-out: 5-HT2C BRET EC50
[5] = Table 4, relative to 4-hydroxytryptamine, at least three replicate trials

T1 sequence (P41595 whole entry): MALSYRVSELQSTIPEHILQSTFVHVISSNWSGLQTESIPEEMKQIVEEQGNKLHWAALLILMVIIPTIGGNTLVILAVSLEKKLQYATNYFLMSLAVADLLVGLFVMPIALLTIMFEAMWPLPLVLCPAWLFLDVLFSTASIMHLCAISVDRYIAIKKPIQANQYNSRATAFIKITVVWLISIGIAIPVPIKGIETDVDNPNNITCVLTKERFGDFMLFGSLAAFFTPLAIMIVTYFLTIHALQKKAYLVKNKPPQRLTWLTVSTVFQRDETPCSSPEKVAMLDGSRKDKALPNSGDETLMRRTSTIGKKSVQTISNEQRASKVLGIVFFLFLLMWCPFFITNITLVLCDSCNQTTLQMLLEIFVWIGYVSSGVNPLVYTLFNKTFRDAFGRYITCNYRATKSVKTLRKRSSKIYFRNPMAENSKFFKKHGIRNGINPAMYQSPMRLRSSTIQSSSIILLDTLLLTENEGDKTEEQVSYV
T3 sequence (P28223 whole entry): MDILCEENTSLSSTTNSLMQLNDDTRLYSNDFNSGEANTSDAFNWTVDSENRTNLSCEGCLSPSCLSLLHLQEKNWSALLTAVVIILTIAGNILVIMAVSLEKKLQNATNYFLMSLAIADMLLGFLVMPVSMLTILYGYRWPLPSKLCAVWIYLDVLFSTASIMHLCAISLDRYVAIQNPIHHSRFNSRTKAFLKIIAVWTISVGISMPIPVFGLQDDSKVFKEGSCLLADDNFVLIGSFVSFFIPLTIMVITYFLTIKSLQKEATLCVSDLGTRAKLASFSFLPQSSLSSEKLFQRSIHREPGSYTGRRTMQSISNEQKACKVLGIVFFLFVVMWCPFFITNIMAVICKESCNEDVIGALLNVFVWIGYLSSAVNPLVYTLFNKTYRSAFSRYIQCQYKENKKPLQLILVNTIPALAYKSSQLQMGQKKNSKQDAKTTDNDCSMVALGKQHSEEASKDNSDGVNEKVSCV

Row | Structure (SMILES) | 5-HT2B BRET Eff % (5-HT2B receptor) | 5-HT2B BRET EC50 (nM) (5-HT2B receptor) | 5-HT2C BRET Eff % (5-HT2C receptor) [%] | EC50 (5-HT2C receptor) [nM] | EC50 (5-HT2A receptor) [nM] | 5-HT2A BRET Eff % (5-HT2A receptor; [1]) | EC50 (5-HT2B receptor; read-out: 5-HT2B BRET EC50) [nM] | EC50 (5-HT2A receptor; [2]) [nM] | 5-HT2C BRET Eff % (5-HT2C receptor; [3]) [%] | EC50 (5-HT2C receptor; [4]) [nM] | 5-HT2A BRET EC50 (nM) (5-HT2A receptor; [5]) | EC50 (5-HT2B receptor; 5-HT2B BRET EC50 (nM)) [nM]
1 | Cc1ccc(OP(=O)(O)O)c2c(CCN(C)C)c[nH]c12 [Compound 24] | inactive | inactive | 69 | 370 | 1150 | 69% | – | – | – | – | – | –
2 | NCCc1c[nH]c2cccc(O)c12 [4-hydroxytryptamine, reference compound] | 100% | – | 99 | 0.35 | – | 100% | 0.8 | 2.9 | – | – | – | –
3 | Cc1cc(F)c(O)c2c(CCN(C)C)c[nH]c12 [Compound 30] | 8% | – | – | – | – | 64% | – | – | – | – | – | –
4 | Cc1cc2c(c3c(CCN)c[nH]c13)CCCO2 [Compound 110] | 63% | – | – | – | – | 91% | 139 | 277 | 96 | 69 | – | –
5 | CN(C)CCc1c[nH]c2c(CCF)ccc(O)c12 [Compound 8, 3-[2-(Dimethylamino)ethyl]-7-(2-fluoroethyl)indol-4-ol] | inactive | inactive | 56 | 3930 | – | inactive | – | – | – | – | inactive | –
6 | COc1ccc(C)c2[nH]cc(CCN(C)C)c12 [Compound 26, [2-(4-Methoxy-7-methylindol-3-yl)ethyl]dimethylamine] | inactive | inactive | 113 | 3.5 | 95 | 68% | – | – | – | – | – | –
7 | COc1cc(F)c(C)c2[nH]cc(CCN(C)C)c12 [Compound 34, [2-(6-Fluoro-4-methoxy-7-methylindol-3-yl)ethyl]dimethylamine] | inactive | inactive | 94 | 1.8 | 16.9 | 84% | – | – | – | – | – | –
8 | CC(C)c1ccc(O)c2c(CCN(C)C)cn(C)c12 [Compound 11, 3-[2-(Dimethylamino)ethyl]-7-isopropyl-1-methylindol-4-ol] | inactive | inactive | 88 | 22 | 1160 | 66% | – | – | – | – | – | –
9 | Cc1cc(O)c2c(CCN(C)C)c[nH]c2c1 [Compound 37, 3-[2-(Dimethylamino)ethyl]-6-methylindol-4-ol] | 41% | – | 95 | 1.5 | 59 | 88% | – | – | – | – | – | 189
10 | Cc1cccc2c(CCN(C)C)c[nH]c12 [7,N,N-TMT] | 36% | – | – | – | 232 | 80% | – | – | 79 | 11.7 | – | 74
11 | Cc1ccc(O)c2c(CCN(C)C)c[nH]c12 [Compound 1, 3-[2-(Dimethylamino)ethyl]-7-methylindol-4-ol] | inactive | inactive | 79 | 6.9 | 66 | 72% | – | – | – | – | – | –
12 | Cc1ccc(OCc2ccc(C(F)(F)F)cc2)c2c(CCN(C)C)c[nH]c12 [Compound 39, Dimethyl[2-[7-methyl-4-[4-(trifluoromethyl)benzyloxy]indol-3-yl]ethyl]amine] | inactive | inactive | – | – | – | 90% | – | 7660 | 81 | 131 | – | –
13 | CN(C)CCc1cn2c3c(cccc13)OCC2 [Compound 135, [2-(2,3-Dihydro-[1,4]oxazino[2,3,4-hi]indol-6-yl)ethyl]dimethylamine Hydrochloride] | 42% | – | – | – | – | 76% | 10.7 | 767 | 96 | 9 | – | –
14 | Cc1ccc(O)c2c(CCN(C)C(C)C)c[nH]c12 [Compound 16, 3-[2-[Isopropyl(methyl)amino]ethyl]-7-methylindol-4-ol] | inactive | inactive | 103 | 53 | 150 | 77% | – | – | – | – | – | –
15 | CN(C)CCc1c[nH]c2cc(F)cc(O)c12 [Compound 36, 3-[2-(Dimethylamino)ethyl]-6-fluoroindol-4-ol] | 62% | – | 93 | 1.7 | 2.9 | 92% | – | – | – | – | – | 4.2
16 | Cc1ccc(O)c2c(CCN(C)C3CC3)c[nH]c12 [Compound 17] | inactive | inactive | 111 | 3.2 | 12.9 | 54% | – | – | – | – | – | –
17 | CN(C)CCc1c[nH]c2c(CCO)ccc(O)c12 [Compound 7, 3-[2-(Dimethylamino)ethyl]-7-(2-hydroxyethyl)indol-4-ol] | inactive | inactive | – | – | – | 81% | – | 75 | 76 | 5.6 | – | –
18 | CN(C)CCc1c[nH]c2cccc(O)c12 [psilocin, reference compound] | 63% | – | – | – | – | 82% | – | – | – | – | – | –
19 | CN(C)CCc1c[nH]c2c(C#N)ccc(O)c12 [Compound 64, 3-[2-(Dimethylamino)ethyl]-4-hydroxyindole-7-carbonitrile] | inactive | inactive | 79 | 88 | 267 | 49% | – | – | – | – | – | –
20 | Cc1c(F)cc(O)c2c(CCN(C)C)c[nH]c12 [Compound 33, 3-[2-(Dimethylamino)ethyl]-6-fluoro-7-methylindol-4-ol] | inactive | inactive | 102 | 1.4 | 20 | 78% | – | – | – | – | – | –
21 | CC(C)c1ccc(O)c2c(CCN(C)C)c[nH]c12 [Compound 10, 3-[2-(Dimethylamino)ethyl]-7-isopropylindol-4-ol] | inactive | inactive | 60 | 34 | 1070 | 40% | – | – | – | – | – | –
22 | CN(C)CCc1c[nH]c2c(C(N)=O)ccc(O)c12 [Compound 65, 3-[2-(Dimethylamino)ethyl]-4-hydroxyindole-7-carboxamide] | inactive | inactive | – | – | – | inactive | – | – | 69 | 9960 | inactive | –
23 | Cc1ccc(O)c2c(C[C@H]3CCN3C)c[nH]c12 [Compound 77, 7-Methyl-3-[((S)-1-methylazetidin-2-yl)methyl]indol-4-ol] | 41% | – | – | – | – | 69% | 57 | 49 | 66 | 7.3 | – | –
24 | CCc1ccc(O)c2c(CCN(C)C)c[nH]c12 [Compound 9, 3-[2-(Dimethylamino)ethyl]-7-ethylindol-4-ol] | inactive | inactive | 67 | 28 | 154 | 78% | – | – | – | – | – | –
25 | CCN(C)CCc1c[nH]c2c(C)ccc(O)c12 [Compound 14] | inactive | inactive | 108 | 4.2 | 82 | 63% | – | – | – | – | – | –
